For data set [1] the following is noted: male, ICR, mouse, in vivo.
Method: (§1) For analysis of sibutramine, a mobile phase was made, consisting of 10 mM ammonium acetate adjusted to pH 4 with acetic acid: acetonitrile (94:6, v/v) and was eluted at 0.2 mL/min. […] Other parameters of mass spectrometers were the same as those used for analysis of metabolites of CYP substrates.
(§2) Male ICR mice (5 weeks old, weight of 20–25 g) were purchased from the Charles River Company Korea (Orient, Seoul, Korea). […] They were provided free access to food and water. These mice were allowed to acclimate to these conditions for three days prior to inclusion in the experiments.
(§3) Surgical procedures for mice were conducted under tiletamine HCl and zolazepam HCl anesthesia by intramuscular injection. The carotid artery (for blood sampling) cannulation was carried out using catheters (BASi, West Lafayette, IN, USA). Drug administration and blood sampling were performed at 5 h after surgery [55]. […] Other procedures were the same as those used for the sibutramine pharmacokinetic study.
(§4) AUC was calculated using the trapezoidal rule method. Standard methods [56] were used to calculate pharmacokinetic parameters using non-compartmental analysis (WinNonlin 2.1; Pharmasight Corp., Mountain View, CA, USA). Cmax and Tmax were read reversibly from extrapolated data.
A short description of data set [2]: in vivo. To be noted: male, ICR, mouse.
Method: as §1, §2, §3, §4
A short description of data set [3]: Drug interaction of sibutramine, clopidogrel, or chlorzoxazone with sauchinone in mice (plasma pharmacokinetics). To be noted: for CL/F / Tmax / half-life / AUC: male, ICR, mouse, in vivo; for AUC: plasma, 1 mg/kg sibutramine, 10 mg/kg clopidogrel or 10 mg/kg chlorzoxazone.
Method: as §1, §2, §3, §4
Data set [4] concerns the target T1, CYP2A6 (Homo sapiens, UniProt P11509).
T1 sequence (P11509 1-494): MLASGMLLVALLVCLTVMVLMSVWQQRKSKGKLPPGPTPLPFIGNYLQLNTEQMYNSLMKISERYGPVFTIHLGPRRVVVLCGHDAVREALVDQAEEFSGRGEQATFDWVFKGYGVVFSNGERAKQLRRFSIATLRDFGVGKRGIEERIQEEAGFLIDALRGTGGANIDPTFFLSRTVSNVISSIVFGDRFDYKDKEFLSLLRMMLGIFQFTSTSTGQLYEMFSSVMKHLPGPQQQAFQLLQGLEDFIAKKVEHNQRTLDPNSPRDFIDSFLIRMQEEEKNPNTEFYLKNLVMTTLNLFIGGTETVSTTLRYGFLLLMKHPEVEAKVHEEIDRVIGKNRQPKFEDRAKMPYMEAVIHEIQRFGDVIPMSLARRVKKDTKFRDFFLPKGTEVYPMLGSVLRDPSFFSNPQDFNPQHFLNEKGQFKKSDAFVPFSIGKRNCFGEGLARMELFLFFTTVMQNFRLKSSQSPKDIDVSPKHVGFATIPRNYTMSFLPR
In words: Reversible inhibition (RI) of CYP2A6 activity in HLMs (cocktail probe assay). The note with it: read-out: IC50 on CYP2A6 activity (RI); HLMs; reversible inhibition; 5 μM coumarin; 30 min incubation; inhibitor 0–300 μM.

Data set [5] concerns the target T2, CYP2C19 (Homo sapiens, UniProt P33261).
T2 construct: pooled human liver microsomes from a mixed pool of 50 donors; tissue BD Gentest Co. 452156; host or cells: human liver microsomes, pool of 50 donors
Put plainly: Reversible inhibition (RI) of CYP2C19 activity in HLMs (cocktail probe assay). The note with it: S-mephenytoin hydroxylation, 100 μM S-mephenytoin, 30 min incubation. The format is in vitro ADME.

The mark [6] stands for this setting: mice, drug with sauchinone versus drug alone, decrease.
The mark [7] stands for this setting: mice, drug with sauchinone versus drug alone, increase.

Molecules are shown by their SMILES. Read-outs that look alike come from different tables or passages of the source.

T2 sequence (P33261 whole entry): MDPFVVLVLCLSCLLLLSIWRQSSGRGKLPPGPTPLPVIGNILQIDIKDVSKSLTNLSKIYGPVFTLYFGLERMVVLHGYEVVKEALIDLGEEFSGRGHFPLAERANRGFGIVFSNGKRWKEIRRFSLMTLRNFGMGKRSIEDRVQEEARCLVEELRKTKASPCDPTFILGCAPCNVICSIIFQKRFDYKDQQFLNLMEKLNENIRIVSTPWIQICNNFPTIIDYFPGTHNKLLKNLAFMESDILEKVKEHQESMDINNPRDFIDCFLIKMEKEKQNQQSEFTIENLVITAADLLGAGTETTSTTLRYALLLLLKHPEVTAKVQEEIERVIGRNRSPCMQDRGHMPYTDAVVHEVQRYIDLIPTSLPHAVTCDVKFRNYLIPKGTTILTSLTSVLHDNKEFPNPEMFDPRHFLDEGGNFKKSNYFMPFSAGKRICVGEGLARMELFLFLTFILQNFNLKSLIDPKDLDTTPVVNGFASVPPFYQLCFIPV

Take `COC(=O)[C@H](c1ccccc1Cl)N1CCc2sccc2C1` [Clopidogrel, clopidogrel]: in data set [1], the “AUC greater with sauchinone than drug alone (by %)” value is 31.0%, the “CL/F slower with sauchinone than drug alone (by %)” value amounted to 24.7%, the “Cmax higher with sauchinone than drug alone (by %)” value worked out at 17.3% and the “t1/2 smaller with sauchinone than drug alone (by %)” value was determined as 19.1%. In data set [2], the CL/F turned out to be 3.81 ± 0.514 mL/min/kg, the Tmax is 0.25 h and the half-life is 2.18 ± 0.112 h. In addition, in data set [2] (po), the CL/F came out at 2.87 ± 0.225 mL/min/kg, the Tmax was 0.25 h and the half-life worked out at 1.77 ± 0.427 h.

For the compound `CC(C)CC(N(C)C)C1(c2ccc(Cl)cc2)CCC1` (stereo not drawn) [Sibutramine, sibutramine], in data set [3], the CL/F was 0.253 ± 0.0208 mL/min/kg, the Tmax was 0.25 h and the half-life is 3.28 ± 0.598 h. In data set [3] (po), the CL/F stood at 0.205 ± 0.0186 mL/min/kg, the Tmax is 0.25 h and the half-life came out at 2.75 ± 0.53 h. In data set [3] (po, mice, with sauchinone (100 mg/kg oral, 30 min before)), this compound gave an AUC of 82000 ng·h/mL. Further, in data set [3] (po, mice, without sauchinone (vehicle), oral administration per Table 3), the AUC is 66300 ng·h/mL. In data set [3] (setting [6]), the “CL/F slower with sauchinone than drug alone (by %)” value is given as 19.0% and the “t1/2 smaller with sauchinone than drug alone (by %)” value stood at 16.2%. In data set [3] (setting [7]), the “AUC greater with sauchinone than drug alone (by %)” value is 23.6% and the “Cmax higher with sauchinone than drug alone (by %)” value was found to be 41.5%.

As to `N[C@@H]1C[C@H]1c1ccccc1` (racemic) [tranylcypromine, reference compound], the IC50 in data set [4] was 1.99 µM.

Turning to `COc1ccc2[nH]c([S+]([O-])Cc3ncc(C)c(OC)c3C)nc2c1` (stereo not drawn) [omeprazole, reference compound], in data set [5], it took 6.59 µM to reach half-maximal inhibition (IC50).

One may read the CL/F as the apparent clearance, not corrected for the fraction that reaches the circulation. The term Tmax denotes the time from dosing to the highest level. In general, half-life refers to the time needed for the level to fall by half in the phase considered. Read a high half-life as slow loss. The term AUC denotes the area under the concentration-time curve, a measure of exposure. A low value points to less exposure. Usually IC50 stands for the concentration that inhibits the measured activity by half.

Values taken from PMC6017976, “Enzyme Kinetics and Molecular Docking Studies on Cytochrome 2B6, 2C19, 2E1, and 3A4 Activities by Sauchinone” (Molecules : A Journal of Synthetic Chemistry and Natural …, 2018).
